Measured values: US20160291027A1, “METHODS FOR […] ABILITY OF A Z[…] COMPOUND TO TREAT CANCER” (Eisai R&D Management Co., Ltd., priority 2007, published 2016)

Tests used:
[1] = test system: DBTRG-05MG human glioblastoma xenografts; assay: Subcutaneous DBTRG-05MG glioblastoma xenograft model; assay type: in vivo, mice
Description: The purpose of this study was to investigate anticancer activity of Compound 106 in a human DBTRG-05MG glioblastoma xenograft model. DBTRG-05MG human glioblastoma cancer cells, which carry the BRAF (V600E) mutation, were grown in monolayer cultures in ATCC-recommended growth media at 37° C. in a 5% CO2 humidified incubator. Cells were expanded in T225 flasks for the in vivo study. On the day of injection, growth medium was removed, flasks were washed with PBS, and cells were collected by trypsinization. The cells were washed and collected by centrifugation, and resuspended in ice-cold PBS.
Female athymic NU/NU mice (6 week old, Charles River Laboratories (Wilmington, Mass.)) were inoculated subcutaneously (s.c.) with 5×10^6 DBTRG-05MG human glioblastoma cancer cells. Those animals that developed tumors of approximately 150 mm^3 were selected and randomized into five groups.
The study consisted of a vehicle-treated group and four drug-treated groups of 8 mice per group for a total of 40 mice on the first day of treatment. All treatments were initiated on day 21. Compound 106 was administered intravenously (i.v.) on a Q4D×3 (days 21, 25, and 29) dosing schedule at dosages of 5, 10, 20 and 40 mg/kg with a volume of injection of 0.1 mL per 10 g body weight (Q4D×3=every four days for a total of three injections). The control group was treated with vehicle alone (20% Captisol in water; Captisol® (Sulfobutyl Ether Beta Cycolodextrin, Sodium Salt; Cydex, Inc., KS)).
General health of the mice was monitored and mortality was recorded daily. Tumor dimensions and animal body weights were recorded twice a week starting on the first day of treatment. The s.c. tumor volumes were measured and animals were weighed twice weekly starting with the first day of treatment. Tumor volume was determined by caliper measurement (mm) and using the following formula: […]
The study was terminated 60 days after cancer cell transplantation. […]

[2] = test system: panel of 31 melanoma cell lines; assay: MTS cell viability assay in a panel of 31 melanoma cell lines; assay type: cell-based; conditions: for % of Less Sensitive cell lines / Less sensitive cell lines (number/total) / Sensitive cell lines (number/total): Cut-Off IC50 < 100 nmol/L; for Number of sensitive cell lines: sensitivity defined as IC50<500 nmol/L
Description: Cell viability was also assessed in a panel of 31 melanoma cell lines carrying different mutations in BRAF following treatment with a zearalenone analog compound, Compound 106. All assays were performed in a 96 well format. Cell viability was assessed after four days following treatment. Cell viability was assessed with a MTS Assay (CellTiter96®AqueousOne Solution Cell Proliferation Assay, Promega) in a panel of cell lines carrying various BRAF mutations to determine the effect of BRAF genotype on drug sensitivity. The mutational status of these cell lines and IC50 in nmol/L is depicted in FIG. 3C.
Cell viability was assessed in a panel of melanoma cell lines carrying different mutations in BRAF, and PTEN following treatment with the MEK inhibitor, Compound 106. The panel of 31 melanoma cell lines was tested with eight concentrations of Compound 106 ranging from 10 μmol/L to 0.0003 μmol/L of Compound 106. (The panel of cell lines also carries mutations in one or more additional genes associated with cancer).
All assays were performed in a 96 well format. Cell viability was assessed after four days following treatment. Cell viability was assessed with a MTS Assay (CellTiter96®AqueousOne Solution Cell Proliferation Assay, Promega) to determine the effect of genotype on drug sensitivity.

[3] = mutant BRAF gene (20 cell lines)
[4] = total cell lines (31 cell lines)
[5] = wild-type BRAF gene (11 cell lines)

SMILES: CCNc1cc(O)c2c(c1)/C=C/C[C@H](O)[C@H](O)C(=O)/C=C\[C@@H](C)[C@H](C)OC2=O [Compound 106]
- Tumor-free animals on day 60 ([1]; 5 mg/kg i.v. Q4D×3): One out of eight
- Tumor-free animals on day 60 ([1]; 20 mg/kg i.v. Q4D×3): One out of eight
- Anticancer activity (tumor volume vs. control group) ([1]; 5, 10, 20, and 40 mg/kg i.v. Q4D×3): statistically significant anticancer activity
- % of Less Sensitive cell lines [2, 3]: (25%)
- Less sensitive cell lines (number/total) [2, 3]: 5/20
- Sensitive cell lines (number/total) [2, 3]: 15/20
- % of Less Sensitive cell lines [2, 4]: (42%)
- Less sensitive cell lines (number/total) [2, 4]: 13/31
- % of Less Sensitive cell lines [2, 5]: (73%)
- Less sensitive cell lines (number/total) [2, 5]: 8/11
- Sensitive cell lines (number/total) [2, 5]: 3/11
- % of Cell lines with IC50 < 100 nmol/L ([2]; PTEN gene Mutant (8 cell lines), Total): (50%)
- % of Cell lines with IC50 < 100 nmol/L ([2]; PTEN gene Mutant, BRAF Mutant): (50%)
- % of Cell lines with IC50 < 100 nmol/L ([2]; PTEN gene Mutant, BRAF Wild Type): (0%)
- % of Cell lines with IC50 < 100 nmol/L ([2]; PTEN gene Wild Type (23 cell lines), Total): (65%)
- % of Cell lines with IC50 < 100 nmol/L ([2]; PTEN gene Wild Type, BRAF Mutant): (86%)
- % of Cell lines with IC50 < 100 nmol/L ([2]; PTEN gene Wild Type, BRAF Wild Type): (33%)
- % of Cell lines with IC50 < 100 nmol/L ([2]; p-AKT expression High (G2-G3), BRAF Mutant): (67%)
- % of Cell lines with IC50 < 100 nmol/L ([2]; p-AKT expression High (G2-G3), BRAF Wild Type): (0%)
- % of Cell lines with IC50 < 100 nmol/L ([2]; p-AKT expression High (G2-G3), Total): (57%)
- % of Cell lines with IC50 < 100 nmol/L ([2]; p-AKT expression Low (G0-G1), BRAF Mutant): (79%)
- % of Cell lines with IC50 < 100 nmol/L ([2]; p-AKT expression Low (G0-G1), BRAF Wild Type): (30%)
- % of Cell lines with IC50 < 100 nmol/L ([2]; p-AKT expression Low (G0-G1), Total): (58%)
- Number of sensitive cell lines ([2]; of the 8 cell lines with mutant PTEN or loss of PTEN): 3 cell lines
- Number of sensitive cell lines ([2]; of the 23 cell lines with wild-type PTEN): 12 cell lines
